Results published in PMC10714400, “Antimicrobial Peptide–Peptoid Hybrids with and without Membrane Disruption” (ACS Infectious Diseases, 2023).
In brackets after ≈: the same amount, converted by molar mass. Where a SMILES comes first, the peptide text is derived from it. [ ]: non-standard residue; d: D form. Nleu = CC(C)CNCC(=O)O; Nlys = NCCCCNCC(=O)O

How the values were obtained:
[1] = test system: K. pneumoniae NCTC418; conditions: NCTC418, 4 h
Method: (§1) Antimicrobial activity was assayed for all the peptide–peptoids against P. aeruginosa PAO1, K. pneumoniae NCTC418, E. coli W3110, A. baumannii ATCC 19606, methicillin-resistant S. aureus COL (MRSA), and for selected peptides on P. aeruginosa PA14 and the polymyxin-B-resistant derivatives PA14 4.13, PA14 4.18, PA14 2P4, as well as the clinical isolates ZEM-1A and ZEM9A, K. pneumoniae OXA-48, S. aureus Newman, Enterobacter cloacae, Stenotrophomonas maltophilia, Burkholderia cenocepacia, and Staphylococus epidermidis. To determine the Minimal Inhibitory Concentration (MIC), the Broth Microdilution method was used.[72] A colony of bacteria was picked and grown in LB medium overnight at 37 °C.
(§2) To each well was finally added 4 μL of the diluted bacterial suspension (see above), corresponding to approximately 5 × 10^5 CFU. For each test, two columns of the plate were kept for sterility control (medium only), growth control (medium with bacterial inoculum, no compound). The positive control, Polymyxin B (starting with a concentration of 16 μg/mL) in MH medium with bacterial inocula, was introduced in the two lines of the plate. The plates were incubated at 37 °C for ca. 18 h under static conditions. Next, 15 μL of 3-(4,5-dimethylthiazol-2-yl)-2,5-diphenyltetrazolium bromide (MTT)[73] (1 mg/mL in sterilized MilliQ deionized water) were added to each well, and the plates were incubated for 20–30 min at room temperature. The minimal inhibitory concentration (MIC) was defined as the lowest concentration of the compound that inhibits the visible growth of the tested bacteria (yellow) with the unaided eye.

[2] = test system: PA14 4.18 (pmrB); conditions: CSV; […] MH at pH 8.5
Method: as §1, §2

[3] = test system: A. baumannii ATCC19606; conditions: for MIC A. baumannii ATCC19606, full MH at pH 7.4 / MIC A. baumannii ATCC19606, full MH at pH 8.5: ATCC19606, 4 h
Method: as §1, §2

[4] = test system: P. aeruginosa PAO1; conditions: PAO1, 4 h
Method: as §1, §2

[5] = test system: E. coli W3110; conditions: for MIC E. coli W3110, […] MH at pH 7.4 / MIC E. coli W3110, […] MH at pH 8.5 / MIC E. coli W3110, full MH at pH 7.4 / MIC E. coli W3110, full MH at pH 8.5: CSV; for MIC E. coli W3110 […]: diluted MH ([…] MH, pH 8.5) per Table 1 footnote b, 16–20 h at 37 °C; for MIC E. coli W3110 Full: full MH, pH 7.4, 16–20 h at 37 °C
Method: as §1, §2

[6] = test system: PA14 4.13 (phoQ); conditions: […] MH at pH 8.5; for MIC P. aeruginosa PA14 4.13, […] MH at pH 8.5: CSV
Method: as §1, §2

[7] = test system: S. aureus COL (MRSA); conditions: COL
Method: as §1, §2

[8] = test system: PA14 2P4 (pmrB); conditions: CSV; […] MH at pH 8.5
Method: as §1, §2

[9] = test system: human red blood cells (hRBC); test: Minimum hemolytic concentration (MHC); assay type: cell-based
Description: We also measured minimal hemolysis concentrations (MHC) on human red blood cells by serial 2-fold dilution as an indication of toxicity against eukaryotic cells (Table 1).

## CC(C)C[C@H](NC(=O)[C@H](CC(C)C)NC(=O)[C@H](CC(C)C)NC(=O)CN(CCCCN)C(=O)[C@H](CC(C)C)NC(=O)[C@H](CC(C)C)NC(=O)CN(CCCCN)C(=O)[C@H](CC(C)C)NC(=O)[C@H](CC(C)C)NC(=O)CN(CCCCN)C(=O)CNCCCCN)C(N)=O [EB7, kkLLkLLkLLL] (H-[Nlys][Nlys]LL[Nlys]LL[Nlys]LLL-NH2)
[1]
  MIC K. pneumoniae NCTC418, full MH at pH 7.4: >32 ug/mL
  MIC K. pneumoniae NCTC418, full MH at pH 8.5: 4 ug/mL
[2]
  MIC P. aeruginosa PA14 4.18, […] MH at pH 8.5: 8 ug/mL
[3]
  MIC A. baumannii ATCC19606, full MH at pH 7.4: >32 ug/mL
  MIC A. baumannii ATCC19606, full MH at pH 8.5: 4 ug/mL
[3]; ATCC19606, pH 7.4
  MIC A. baumannii ATCC19606 Full: >32 µg/mL
[4]
  MIC P. aeruginosa PAO1, full MH at pH 7.4: 32 ug/mL
  MIC P. aeruginosa PAO1, full MH at pH 8.5: 8 ug/mL
[5]
  MIC E. coli W3110, […] MH at pH 7.4: 4 ug/mL
  MIC E. coli W3110, […] MH at pH 8.5: 1 ug/mL
  MIC E. coli W3110, full MH at pH 7.4: 16 ug/mL
  MIC E. coli W3110, full MH at pH 8.5: 4 ug/mL
  MIC E. coli W3110 […]: 4 µg/mL (≈ 3.03 µM)
  MIC E. coli W3110 Full: 16 µg/mL (≈ 12.1 µM)
[6]
  MIC P. aeruginosa PA14 4.13, […] MH at pH 8.5: 4 ug/mL
[7]; 4 h, pH 7.4
  MIC S. aureus COL (MRSA), full MH at pH 7.4: >32 ug/mL
[7]; 4 h, pH 8.5
  MIC S. aureus COL (MRSA) Full MH 8.5: 4 to 8 µg/mL
  MIC S. aureus COL (MRSA), full MH at pH 8.5: 6 ug/mL
[7]; pH 7.4
  MIC S. aureus COL (MRSA) Full: >32 µg/mL
[8]
  MIC P. aeruginosa PA14 2P4, […] MH at pH 8.5: 16 ug/mL
[9]
  Hemolysis: none of them showed any measurable hemolysis
  MHC: >2000 µg/mL

## CC(C)CN(CC(N)=O)C(=O)CN(CC(C)C)C(=O)CN(CC(C)C)C(=O)[C@H](CCCCN)NC(=O)CN(CC(C)C)C(=O)CN(CC(C)C)C(=O)[C@H](CCCCN)NC(=O)CN(CC(C)C)C(=O)CN(CC(C)C)C(=O)[C@H](CCCCN)NC(=O)[C@@H](N)CCCCN [EB8, KKllKllKlll] (H-KK[Nleu][Nleu]K[Nleu][Nleu]K[Nleu][Nleu][Nleu]-NH2)
[1]
  MIC K. pneumoniae NCTC418, full MH at pH 7.4: >32 ug/mL
  MIC K. pneumoniae NCTC418, full MH at pH 8.5: 16 ug/mL
[2]
  MIC P. aeruginosa PA14 4.18, […] MH at pH 8.5: 32 ug/mL
[3]
  MIC A. baumannii ATCC19606, full MH at pH 7.4: >32 ug/mL
  MIC A. baumannii ATCC19606, full MH at pH 8.5: 16 ug/mL
[4]
  MIC P. aeruginosa PAO1, full MH at pH 7.4: >32 ug/mL
  MIC P. aeruginosa PAO1, full MH at pH 8.5: 16 ug/mL
[5]
  MIC E. coli W3110, […] MH at pH 7.4: 8 ug/mL
  MIC E. coli W3110, […] MH at pH 8.5: 3 ug/mL
  MIC E. coli W3110, full MH at pH 7.4: >32 ug/mL
  MIC E. coli W3110, full MH at pH 8.5: 8 ug/mL
  MIC E. coli W3110 […]: 8 µg/mL (≈ 6.05 µM)
  MIC E. coli W3110 Full: >32 µg/mL
[5]; Table S2, […] MH, pH 8.5
  MIC E. coli W3110 […] 8.5: 2 to 4 µg/mL
[6]
  MIC P. aeruginosa PA14 4.13, […] MH at pH 8.5: 24 ug/mL
[6]; Table S3
  MIC P. aeruginosa PA14 4.13: 16 to 32 µg/mL
[7]; 4 h, pH 7.4
  MIC S. aureus COL (MRSA), full MH at pH 7.4: >32 ug/mL
[7]; 4 h, pH 8.5
  MIC S. aureus COL (MRSA), full MH at pH 8.5: 16 ug/mL
[8]
  MIC P. aeruginosa PA14 2P4, […] MH at pH 8.5: 32 ug/mL
[9]
  Hemolysis: none of them showed any measurable hemolysis
  MHC: >2000 µg/mL
